The values that follow come from US12599676B2, “Cytotoxic imidazo[1,2-A]pyridine compounds and their use in therapy” (MyricX Pharma Limited, priority 2022, dated 2026).

The test system of one data set is JIMT-1 tumour cells. Nature of the data set: JIMT-1 breast cancer xenograft model. The data set is classed as in vivo, NOD/SCID mice. The procedure:
80 mice were assigned to 8 treatment groups when tumour volumes averaged ˜160.66 mm^3 on Study Day 0. Dosing commenced the following day and all animals were dosed intravenously with ADC Example 3, sacituzumab govitecan or unconjugated sacituzumab. The study was terminated on the Study Day 60.

For another data set, the system named is VcaP tumour cells. Nature of the data set: VCaP prostate cancer xenograft model. It is filed as in vivo, CB17/SCID mice. From the text:
All mice received two doses of test agent, on Study Day 1 and Study Day 8. The study was terminated on Study Day 30.

In a further data set the test system is LNCaP tumour cells. Nature of the data set: LNCaP prostate cancer xenograft model. The data set is classed as in vivo, NOD SCID mice. Conditions: for Day 28 tumour volume (mm^3, mean ± SEM) / Tumour growth inhibition (TGI, %): IV, Q7D (×3); for Tumour growth inhibition (TGI, %): day 28.
The test system of data set [1] is SU-DHL-10 cell line (human B cell lymphoma). Nature of the data set: Cell cytotoxicity in SU-DHL-10 cell line (CellTiter-Glo). The conditions noted are these: 72 h treatment, CTG. It is filed as cell-based. The method, then:
Certain Example compounds of the invention and Comparator Compound 1 were tested in the SU-DHL-10 cell line (human B cell lymphoma). Compounds which show efficacy in this assay are expected to be useful as agents for treating or preventing hyperproliferative disorders such as cancer.
Cells were seeded in 96-well microplates and treated with compounds or cisplatin (as a positive control) at 9 increasing concentrations in technical triplicate. […] On day 1, 90 μL of various cell suspensions with the number of cells ranging from 5000-8000 cells/well were seeded into wells of a 96-well plate (Corning). The number of cells to be seeded was previously determined. • 2. All 96-wells plates with cells were placed in an incubator overnight at 37° C. with 5% CO2. • 3. On day 2, cells were observed under a microscope ensuring the cells treated with vehicle control were in good condition. • 4. A dilution series of the test compounds and cisplatin were prepared at 10× the final concentrations required. 10 μL/well of 10× compound solution was added to the corresponding plates. The final volume was 100 μL/well for all the plates. Final DMSO concentration was 0.1%. • 5. On day 5 (after 72 hours of incubation), 50 μL of CTG reagent was added to each well. • 6. Contents were mixed for 5 minutes on an orbital shaker to facilitate cell lysis. • 7. The plate was allowed to incubate at room temperature for 10 minutes to stabilize luminescent signals.
Luminescence was recorded using an EnVision Multi Label Reader. Data analysis was performed using GraphPad Prism 8.0.
To calculate IC50, a concentration-response curve was generated using a nonlinear regression model with a sigmoidal concentration response. The formula for calculating the % of viable cells was shown below, and the IC50s are automatically generated by GraphPad Prism 8.0.
(LumTest article=luminescence in test article treated well; LumNone treated=luminescence in vehicle treated well; LumMedium control=luminescence in a well containing only medium and no cells; LumNone treated-LumMedium control was set as 100%)

Data set [2] in a line: Caco-2 cell permeability assay. It is filed as in vitro ADME. The conditions noted are these: human, Caco-2, pH 7.4, basal to apical Papp, pH 7.4, 2.5 h. The method, then:
(§1) Certain Example compounds and Comparative Example 1 were tested for their apical to basal (AB) and basal to apical (BA) permeability in Caco-2 cells.
(§2) Cell Culture: Caco-2 cells were grown for 10 days in 96-well plates in HBSS buffer containing 10 mM HEPES. Both the apical and basal pH was buffered at pH 7.4. The apical/basal volumes were 75 μl and 250 μl respectively. The incubation time was 2.5 h at 37° C. (without shaking) under 5% CO2 & 95% relative humidity.
(§3) Cell Seeding: Cells were seeded at a density of 18750 cells/well (membrane area=0.0804 cm^2) in a 96 well plate.
(§4) AB Assay: 75 μl of cell suspension was added at a density 2.5×10^5 cells/ml to the apical wells. 40 ml media was added to the feeder tray. The plates were placed in the incubator (37° C., 5% CO2 and controlled humidity). The Caco-2 cells were grown for 10 days with a media change on every alternate day.
(§5) BA Assay: 25 μl of cell suspension was added at a density of 7.5×10^5 cells/ml to the bottom side (keeping the plate upside down) of apical wells. The plate (upside down position) was placed in the incubator (37° C., 5% CO2 and 95% Relative humidity) for 2 h. The plate was turned right side up. 75 μl media was added to the apical wells and 40 ml media to the feeder tray.
(§6) Permeablity Assay: The apical and basal wells were washed with buffer (pH 7.4) and 250 μl buffer was added to the wells of the basal plate. 75 μl of compound solution (2 μM, dissolved in water with 1% DMSO) was transferred to the apical wells (n=2). The apical plate was placed onto the basal plate. The lid was placed on to prevent evaporation. The assembly was incubated at 37° C. for 2.5 h (without shaking) under 5% CO2 and 95% relative humidity. After incubation the apical plate was separated from the basal plate. Aliquots were taken out from the acceptor and donor wells, diluted and quantified using LC-MS/MS along with initial donor samples.
(§7) Membrane Integrity Test: Solution in the apical wells was discarded by inverting the plate and soaking onto tissue paper. 250 μl buffer (pH 7.4) was added to each well of basal plate and 75 μl of Lucifer Yellow (LY; 0.1 mg/ml) in buffer (pH 7.4) to the wells of apical plate. The apical plate was placed onto the basal plate and the lid used to prevent evaporation. The assembly was incubated at 37° C. for 1 h (without shaking) under 5% CO2 and 95% relative humidity. The apical plate was separated from the basal plate. Fluorescence (Ex: 432 nm, Em: 530 nm) of aliquots (100 ul) was measured from basal wells. Fluorescence of 100 μl buffer (pH 7.4) and 100 μl LY(0.1 mg/ml) was also measured. Wells having more than 1% fluorescence intensity with respect to 0.1 mg/ml LY were considered non-integrated membrane. Such wells, if any, were not considered for permeability calculation.
(§8) Calculation: Drug was detected and quantified by LC-MS/MS. Data generated took the form of an apparent permeability (Papp) value. Papp=[Va/(AreaxTime)]×(LC-MS Area of Acceptor sample×Sample dilution factor/LC-MS Area of Initial Donor). Va=Volume of Acceptor Well (in ml)=0.25, Vd=Volume of Donor Well (in ml)=0.075, Area=Surface area of the membrane (cm2)=0.0804, Time=Time of incubation (sec)=9000 Results: The results of the assay are shown in Table 3 below.

A further data set deals with Caco-2 cells. Nature of the data set: Caco-2 cell permeability assay. It is filed as in vitro ADME. Conditions: apical to basal Papp, 2 μM, pH 7.4, 2.5 h. The procedure: as §1, §2, §3, §4, §5, §6, §7, §8
[3] abbreviates: 2.5 mg/kg IV QW × 2 weeks (Group 5 also got ADC Example 3 5 mg/kg on Day 27).
Setting [4] is: 5 mg/kg IV QW × 2 weeks (Group 4 also got ADC Example 3 5 mg/kg on Day 27).

Description for LNCaP tumour cells: A total of 84 male NOD SCID mice aged 5-8 weeks and weighing 25-30 g were used for the study.

For the molecule sacituzumab, the “tumour volume compared to vehicle alone (Group 1)” value with JIMT-1 tumour cells (2.5 mg/kg (Group 3), p=0.0586) is on record as “no significant difference”; in the data set with JIMT-1 tumour cells (5 mg/kg (Group 2), p=0.0028), “significant decrease”. The “ΔTGI (Study Day 28)” value in the data set with JIMT-1 tumour cells (setting [3]) amounted to 12.11%; in the data set on JIMT-1 tumour cells (setting [4]), 14.44%. For the same molecule, in the data set with JIMT-1 tumour cells (p=0.9837), the “tumour volume, 5 mg/kg (Group 2) versus 2.5 mg/kg (Group 3)” value is recorded as “no significant difference”.

For the molecule ifinatamab, the “ΔTGI (Study Day 17)” value in the data set on VcaP tumour cells (2.5 mg/kg IV QW × 2 weeks) is 8.47%. In addition, the “ΔTGI (Study Day 17)” value in the data set with VcaP tumour cells (5 mg/kg IV QW × 2 weeks) came to 12.44%. Also, the “tumour volumes compared to vehicle alone (Group 1)” value in the data set with VcaP tumour cells (all concentrations tested (ADC Example 4: 2.5, 5, 10 mg/kg; unconjugated ifinatamab: 5 and 2.5 mg/kg)) was “no significant difference”. Also, in the data set with LNCaP tumour cells (5 mg/kg), the “LNCaP tumour volume compared to the vehicle control” value is given as “no significant effect”; the “Day 28 tumour volume (mm^3, mean ± SEM)” value was determined as 551.4 ± 73.1 mm^3; the “Tumour growth inhibition (TGI, %)” value came to 30.6%. In the data set with LNCaP tumour cells (10 mg/kg), the “LNCaP tumour volume compared to the vehicle control” value is “no significant effect”; the “Day 28 tumour volume (mm^3, mean ± SEM)” value was 666.56 ± 103.2 mm^3; the “Tumour growth inhibition (TGI, %)” value amounted to 13.0%.

Molecule `CNCc1cnc2ccc(-c3ccc(F)cc3OCCc3c(C(O)C(C)(C)C)nn(C)c3C)cn12` (single isomer, unassigned) [Example 9, 1-(4-(2-(5-fluoro-2-(3-((methylamino)methyl)imidazo[1,2-a]pyridin-6-yl)phenoxy)ethyl)-1,5-dimethyl-1H-pyrazol-3-yl)-2,2-dimethylpropan-1-ol] yielded an IC50 in data set [1] of 0.6 nM. In data set [2], this molecule displayed a Papp B→A at 2.5 h, 2 μM of 8.02 ×10⁻⁶ cm/s. The “Caco-2 A-B” value with Caco-2 cells was 0.26 ×10⁻⁶ cm/s.

Take sacituzumab govitecan: the “tumour volume compared to Groups 2 and 3 (unconjugated sacituzumab)” value in the data set with JIMT-1 tumour cells (2.5 mg/kg (Group 5)) is on record as “no significant difference”. For the same molecule, the “ΔTGI (Study Day 28)” value in the data set on JIMT-1 tumour cells (setting [3]) was determined as 13.13%; in the data set on JIMT-1 tumour cells (setting [4]), 23.39%. The “tumour volume compared to unconjugated sacituzumab Group 2 (5 mg/kg) and Group 3 (2.5 mg/kg)” value in the data set on JIMT-1 tumour cells (5 mg/kg (Group 4)) was “significant decrease”. In the data set with JIMT-1 tumour cells (all concentrations tested (ADC Example 3: 2.5, 5, 10 mg/kg; sacituzumab govitecan: 5 and 2.5 mg/kg)), the “tumour volumes compared to vehicle alone (Group 1)” value is “significant decrease”.

Take `CNCc1cnc2ccc(-c3ccc(F)cc3OCCc3c(C(C)(C)O)nn(C)c3C)cn12` [Example 18, 2-(4-(2-(5-fluoro-2-(3-((methylamino)methyl)imidazo[1,2-a]pyridin-6-yl)phenoxy)ethyl)-1,5-dimethyl-1H-pyrazol-3-yl)propan-2-ol]: in data set [1] (Homo sapiens, SU-DHL10, 72 h), the IC50 was 5.3 nM. In data set [2], this molecule displayed a Papp B→A at 2.5 h, 2 μM of 21.1 ×10⁻⁶ cm/s. In addition, the “Caco-2 A-B” value with Caco-2 cells came to 0.3 ×10⁻⁶ cm/s.

B1: ifinatamab-DXd: ifinatamab-deruxtecan, comparator ADC in prostate xenograft models (conjugate, chains of the INN, looked up)
VH: QVQLVQSGAEVKKPGSSVKVSCKASGYTFTNYVMHWVRQAPGQGLEWMGYINPYNDDVKYNEKFKGRVTITADESTSTAYMELSSLRSEDTAVYYCARWGYYGSPLYYFDYWGQGTLVTVSS
VL: EIVLTQSPATLSLSPGERATLSCRASSRLIYMHWYQQKPGQAPRPLIYATSNLASGIPARFSGSGSGTDFTLTISSLEPEDFAVYYCQQWNSNPPTFGQGTKVEIK
modifications: deruxtecan payload
notes: ifinatamab-deruxtecan, comparator ADC in prostate xenograft models
For the molecule B1, in the data set on VcaP tumour cells (2.5 mg/kg (Group 5)), the “tumour volume compared to Groups 2, 3 and 4” value was “no significant difference”; the “tumour volume compared to vehicle alone (Group 1)” value is given as “no significant difference”. Moreover, in the data set with VcaP tumour cells (2.5 mg/kg IV QW × 2 weeks), the “ΔTGI (Study Day 17)” value is given as 5.24%. Also, in the data set with VcaP tumour cells (5 mg/kg (Group 4)), the “tumour volume compared to unconjugated ifinatamab 5 mg/kg and 2.5 mg/kg” value is “significantly higher tumour volume”; the “tumour volume compared to vehicle alone (Group 1)” value is “significantly higher tumour volume”. Further, in the data set with VcaP tumour cells (5 mg/kg IV QW × 2 weeks), the “ΔTGI (Study Day 17)” value came out at 2.86%. In the data set with LNCaP tumour cells (5 mg/kg), the “LNCaP tumour volume compared to the vehicle control” value was “slowed the growth of LNCaP tumours to a lesser extent”; the “Day 28 tumour volume (mm^3, mean ± SEM)” value worked out at 364.6 ± 51.7 mm^3; the “Tumour growth inhibition (TGI, %)” value is reported as 58.8%. Further, in the data set on LNCaP tumour cells (10 mg/kg), the “LNCaP tumour volume compared to the vehicle control” value is on record as “significantly reduced the mean volume”; the “Day 28 tumour volume (mm^3, mean ± SEM)” value is reported as 259.5 ± 50.3 mm^3; the “Tumour growth inhibition (TGI, %)” value was 75.0%.
